For this experiment, the system named is Mythimna separata. In words: Test Example 1: efficacy on Mythimna separata (treated artificial feed). The experiment is classed as in vivo. The following applies: 1 μl of 5% emulsion (I) mixed with 0.8 g artificial feed; second instar larvae; 25° C.; fifth day. As for the experimental part: 5 parts of the (hetero)aryl imidazole compound of the present invention, 93.6 parts of dimethylformamide, and 1.4 parts of polyoxyethylene alkyl aryl ether were mixed and dissolved to prepare emulsion (I) containing 5% of the active ingredient.
For a control, 98.5 parts of dimethylformamide and 1.5 parts of polyoxyethylene alkyl aryl ether were mixed and dissolved to prepare emulsion (II).
An insecticidal rate was calculated according to the following expression: Insecticidal rate (%)=(The number of dead insects/The number of tested insects)×100
0.8 g of commercially available artificial feed (Insecta LFS, manufactured by Nosan Corp.) and 1 μl of the emulsion (I) were well mixed to obtain test feed.
A plastic test container (capacity: 1.4 ml) was packed with 0.2 g of the test feed per treatment plot. Then, two second instar larvae of Mythimna separata were inoculated to each treatment plot. A plastic lid was put on the test container so as to prevent escape of the second instar larvae of Mythimna separata. The container was placed in a thermostat chamber of 25° C. On the fifth day, the insecticidal rate and the food intake were examined. The test was conducted in duplicate.
The insecticidal rate and the food intake of a control plot were examined in the same way as in Test Example 1 except that the emulsion (I) was changed to the emulsion (II).
`CCS(=O)(=O)c1cc(C2CC2)ccc1-c1ncc(C=CC(F)(F)C(F)(F)C(F)(F)F)n1C` [d-3]: the “insecticidal rate or food intake as compared with the control plot” value was “insecticidal rate of 100% for Mythimna separata or a food intake of 10% or less as compared with the control plot”. Then `Cn1c(C=C(Cl)C(F)(F)C(F)(F)F)cnc1-c1ncc(C2CC2)cc1S(C)(=O)=O` [d-30], with “insecticidal rate of 100% for Mythimna separata or a food intake of 10% or less as compared with the control plot”; and `CCSc1cc(C2CC2)ccc1-c1ncc(C=C(Cl)C(F)(F)F)n1C` (mixture of isomers) [d-6], with “insecticidal rate of 100% for Mythimna separata or a food intake of 10% or less as compared with the control plot”; and `CCS(=O)(=O)c1cc(C2CC2)cnc1-c1ncc(C=C(Cl)I)n1C` [d-14], with “insecticidal rate of 100% for Mythimna separata or a food intake of 10% or less as compared with the control plot”. In the case of `CCS(=O)(=O)c1cc(C2CC2)ccc1-c1ncc(C=CC(F)(F)C(F)(F)F)n1C` [d-5], the “insecticidal rate or food intake as compared with the control plot” value is recorded as “insecticidal rate of 100% for Mythimna separata or a food intake of 10% or less as compared with the control plot”.

`CCS(=O)(=O)c1cc(C2CC2)cnc1-c1ncc(C=C(Br)C(F)(F)F)n1C` (mixture of isomers) [d-24]: the “insecticidal rate or food intake as compared with the control plot” value is listed as “insecticidal rate of 100% for Mythimna separata or a food intake of 10% or less as compared with the control plot”. Then `CCS(=O)(=O)c1cc(C2CC2)cnc1-c1ncc(C=CC(F)(F)C(F)(F)F)n1C` [d-1], with “insecticidal rate of 100% for Mythimna separata or a food intake of 10% or less as compared with the control plot”. Regarding `CCS(=O)(=O)c1cc(C2CC2)cnc1-c1ncc(C=CC(F)(F)C(F)(F)C(F)(F)C(F)(F)F)n1C` [d-4], the “insecticidal rate or food intake as compared with the control plot” value is reported as “insecticidal rate of 100% for Mythimna separata or a food intake of 10% or less as compared with the control plot”. For the molecule `CCS(=O)(=O)c1cc(C2CC2)cnc1-c1ncc(C=C(F)C(F)(F)C(F)(F)C(F)(F)F)n1C` [d-27], the “insecticidal rate or food intake as compared with the control plot” value is on record as “insecticidal rate of 100% for Mythimna separata or a food intake of 10% or less as compared with the control plot”. Consider `CCS(=O)(=O)c1cc(C2(C#N)CC2)cnc1-c1ncc(C=CC(F)(F)C(F)(F)C(F)(F)F)n1C` [d-23], for which the “insecticidal rate or food intake as compared with the control plot” value is “insecticidal rate of 100% for Mythimna separata or a food intake of 10% or less as compared with the control plot”. Consider `CCS(=O)(=O)c1cc(C2(C#N)CC2)cnc1-c1ncc(C=CC(F)(F)F)n1C` [d-16], for which the “insecticidal rate or food intake as compared with the control plot” value was “insecticidal rate of 100% for Mythimna separata or a food intake of 10% or less as compared with the control plot”. As to `CCS(=O)(=O)c1cc(C2CC2)cnc1-c1ncc(C=C(C(F)(F)F)C(F)(F)F)n1C` [d-19], the “insecticidal rate or food intake as compared with the control plot” value is on record as “insecticidal rate of 100% for Mythimna separata or a food intake of 10% or less as compared with the control plot”. As to `CCS(=O)(=O)c1cc(C2CC2)cnc1-c1ncc(C=C(Cl)C(F)(F)F)n1C` [d-33], the “insecticidal rate or food intake as compared with the control plot” value is “insecticidal rate of 100% for Mythimna separata or a food intake of 10% or less as compared with the control plot”.

In the case of `CCS(=O)(=O)c1cc(C2CC2)cnc1-c1ncc(C=C(Cl)C(F)(F)C(F)(F)C(F)(F)F)n1C` [d-13], the “insecticidal rate or food intake as compared with the control plot” value is given as “insecticidal rate of 100% for Mythimna separata or a food intake of 10% or less as compared with the control plot”. Consider `CCS(=O)(=O)c1cc(C2CC2)cnc1-c1ncc(C=C(Cl)Cl)n1C` [d-8], for which the “insecticidal rate or food intake as compared with the control plot” value was “insecticidal rate of 100% for Mythimna separata or a food intake of 10% or less as compared with the control plot”. The entry for `CCS(=O)(=O)c1cc(C2CC2)ccc1-c1ncc(C=C(Cl)C(F)(F)F)n1C` (mixture of isomers) [d-7] is “insecticidal rate of 100% for Mythimna separata or a food intake of 10% or less as compared with the control plot”.

As to `CCS(=O)(=O)c1cc(C2CC2)c[n+]([O-])c1-c1ncc(C=C(Cl)C(F)(F)F)n1C` (mixture of isomers) [e-4], the “insecticidal rate or food intake as compared with the control plot” value is on record as “insecticidal rate of 100% for Mythimna separata or a food intake of 10% or less as compared with the control plot”. On to `CCS(=O)(=O)c1cc(C2CC2)cnc1-c1ncc(C=C(Cl)C(F)(F)C(F)(F)F)n1C` [d-12], for which the “insecticidal rate or food intake as compared with the control plot” value is given as “insecticidal rate of 100% for Mythimna separata or a food intake of 10% or less as compared with the control plot”. As to `CCS(=O)(=O)c1cc(C2(c3ccccn3)CC2)cnc1-c1ncc(C=C(Cl)C(F)(F)F)n1C` (mixture of isomers) [d-21], the “insecticidal rate or food intake as compared with the control plot” value is “insecticidal rate of 100% for Mythimna separata or a food intake of 10% or less as compared with the control plot”.

Regarding `CCS(=O)(=O)c1cc(C2CCCC2)cnc1-c1ncc(C=C(Cl)C(F)(F)F)n1C` (mixture of isomers) [d-32], the “insecticidal rate or food intake as compared with the control plot” value is on record as “insecticidal rate of 100% for Mythimna separata or a food intake of 10% or less as compared with the control plot”. Regarding `CCS(=O)(=O)c1cc(C2(C)CC2)cnc1-c1ncc(C=CC(F)(F)C(F)(F)C(F)(F)F)n1C` [d-29], the “insecticidal rate or food intake as compared with the control plot” value is given as “insecticidal rate of 100% for Mythimna separata or a food intake of 10% or less as compared with the control plot”. On to `CCS(=O)(=O)c1cc(C2(C)CC2)cnc1-c1ncc(C=C(Cl)C(F)(F)F)n1C` (mixture of isomers) [d-20], for which the “insecticidal rate or food intake as compared with the control plot” value is “insecticidal rate of 100% for Mythimna separata or a food intake of 10% or less as compared with the control plot”. For the molecule `CCS(=O)(=O)c1cc(C2(C#N)CC2)cnc1-c1ncc(C=CC(F)(F)C(F)(F)F)n1C` [d-22], the “insecticidal rate or food intake as compared with the control plot” value is on record as “insecticidal rate of 100% for Mythimna separata or a food intake of 10% or less as compared with the control plot”. Then `Cn1c(C=C(Cl)C(F)(F)F)cnc1-c1ncc(C2CC2)cc1S(C)(=O)=O` (mixture of isomers) [d-28], with “insecticidal rate of 100% for Mythimna separata or a food intake of 10% or less as compared with the control plot”; and `CCS(=O)(=O)c1cc(C2(C#N)CC2)cnc1-c1ncc(C=C(Cl)C(F)(F)F)n1C` [d-15, 1-(6-(5-(2-chloro-3,3,3-trifluoroprop-1-en-1-yl)-1-methyl-1H-imidazol-2-yl)-5-(ethylsulfonyl)pyridin-3-yl)cyclopropane-1-carbonitrile], with “insecticidal rate of 100% for Mythimna separata or a food intake of 10% or less as compared with the control plot”; and `CCS(=O)(=O)c1cc(C2CC2)c[n+]([O-])c1-c1ncc(C=C(F)C(F)(F)C(F)(F)F)n1C` [e-1], with “insecticidal rate of 100% for Mythimna separata or a food intake of 10% or less as compared with the control plot”. For `CCS(=O)(=O)c1cc(C2CC2)cnc1-c1ncc(C(F)=C(F)OC(F)(F)C(F)(F)C(F)(F)F)n1C` [d-35], the “insecticidal rate or food intake as compared with the control plot” value is “insecticidal rate of 100% for Mythimna separata or a food intake of 10% or less as compared with the control plot”.

For the molecule `CCS(=O)(=O)c1cc(C2CC2)cnc1-c1ncc(C(F)=C(F)OC(F)(F)F)n1C` (mixture of isomers) [d-37], the “insecticidal rate or food intake as compared with the control plot” value is on record as “insecticidal rate of 100% for Mythimna separata or a food intake of 10% or less as compared with the control plot”. As for `CCS(=O)(=O)c1cc(C2(C(N)=S)CC2)cnc1-c1ncc(C=C(Cl)C(F)(F)F)n1C` (mixture of isomers) [d-18], the “insecticidal rate or food intake as compared with the control plot” value is reported as “insecticidal rate of 100% for Mythimna separata or a food intake of 10% or less as compared with the control plot”.
